Kd and Km data for four compounds are collected here from PMC3429931 (Biochemical Journal, 2012).

Experiment [1] deals with T1, Dat (dopamine N-acetyltransferase), wild-type / full-length (Drosophila melanogaster, UniProt Q94521). The experiment can be described thus: isothermal titration calorimetry. In kind it is binding. (In general: In ITC the heat of successive injections is recorded.)
Experiment [2] has as its target Dat (dopamine N-acetyltransferase), wild-type / full-length (Drosophila melanogaster, UniProt Q94521, Y220F). The experiment can be described thus: Ellman's reagent. Conditions: read-out: Tryptamine Km; 30 °C, 50 mM sodium phosphate pH 7.2, 500 mM NaCl, 2 mM EDTA, 2 mM AcCoA. A general note: DTNB colorimetry detects thiols as they appear.
For experiment [3], the target named is Dat (dopamine N-acetyltransferase), wild-type / full-length (Drosophila melanogaster, UniProt Q94521, S221A). The experiment can be described thus: Ellman's reagent. The conditions noted are these: read-out: Tryptamine Km; 30 °C, 50 mM sodium phosphate pH 7.2, 500 mM NaCl, 2 mM EDTA, 2 mM AcCoA.
Chain of Dat (dopamine N-acetyltransferase), wild-type / full-length (Drosophila melanogaster, UniProt Q94521, S221A) (Q94521 36-275 S221A): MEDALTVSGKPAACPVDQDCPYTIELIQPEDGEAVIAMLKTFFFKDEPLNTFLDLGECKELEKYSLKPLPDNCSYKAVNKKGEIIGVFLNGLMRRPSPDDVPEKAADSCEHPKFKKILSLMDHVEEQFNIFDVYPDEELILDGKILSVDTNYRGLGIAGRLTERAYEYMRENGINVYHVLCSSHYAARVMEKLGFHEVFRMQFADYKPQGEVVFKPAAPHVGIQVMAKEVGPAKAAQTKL
For experiment [4], the target named is Dat (dopamine N-acetyltransferase), wild-type / full-length (Drosophila melanogaster, UniProt Q94521, S217A). The experiment can be described thus: Ellman's reagent. Conditions: read-out: Tryptamine Km; 30 °C, 50 mM sodium phosphate pH 7.2, 500 mM NaCl, 2 mM EDTA, 2 mM AcCoA.
Chain of Dat (dopamine N-acetyltransferase), wild-type / full-length (Drosophila melanogaster, UniProt Q94521, S217A) (Q94521 36-275 S217A): as the sequence (Q94521 36-275 S221A) above, with S182A, A186S counted along it
Experiment [5] addresses Dat (dopamine N-acetyltransferase), wild-type / full-length (Drosophila melanogaster, UniProt Q94521, E82A). The experiment can be described thus: Ellman's reagent. The conditions noted are these: read-out: Tryptamine Km; 30 °C, 50 mM sodium phosphate pH 7.2, 500 mM NaCl, 2 mM EDTA, 2 mM AcCoA.
For experiment [6], the target named is T1, Dat (dopamine N-acetyltransferase), wild-type / full-length. Kind of experiment: Ellman's reagent. The conditions noted are these: read-out: Tryptamine Km; 30 °C, 50 mM sodium phosphate pH 7.2, 500 mM NaCl, 2 mM EDTA, 2 mM AcCoA.
Experiment [7] addresses Dat (dopamine N-acetyltransferase), wild-type / full-length (Drosophila melanogaster, UniProt Q94521, Y220A). The experiment can be described thus: Ellman's reagent. The conditions noted are these: read-out: Tryptamine Km; 30 °C, 50 mM sodium phosphate pH 7.2, 500 mM NaCl, 2 mM EDTA, 2 mM AcCoA.

As usually defined, the Kd is the constant that tells how readily two partners part at equilibrium. A higher Kd goes with lower affinity. One may read the Km as the concentration of substrate that gives half-maximal velocity.

T1 sequence (Q94521 36-275): as the sequence (Q94521 36-275 S221A) above, with A186S counted along it
Chain of Dat (dopamine N-acetyltransferase), wild-type / full-length (Drosophila melanogaster, UniProt Q94521, E82A) (Q94521 36-275 E82A): as the sequence (Q94521 36-275 S221A) above, with E47A, A186S counted along it
Chain of Dat (dopamine N-acetyltransferase), wild-type / full-length (Drosophila melanogaster, UniProt Q94521, Y220F) (Q94521 36-275 Y220F): as the sequence (Q94521 36-275 S221A) above, with Y185F, A186S counted along it
Chain of Dat (dopamine N-acetyltransferase), wild-type / full-length (Drosophila melanogaster, UniProt Q94521, Y220A) (Q94521 36-275 Y220A): as the sequence (Q94521 36-275 S221A) above, with Y185A, A186S counted along it

In turn, `CC(=O)SCCNC(=O)CCNC(=O)[C@H](O)C(C)(C)COP(=O)(O)OP(=O)(O)OC[C@H]1O[C@@H](n2cnc3c(N)ncnc32)[C@H](O)[C@@H]1OP(=O)(O)O` [AcCoA] gave a Kd in experiment [1] of 5.43 ± 1.09 µM.

The compound `NCCc1ccc(O)c(O)c1` [dopamine] showed a Kd in experiment [1] of 25.9 ± 2.5 µM. This Kd is about 4.8-fold higher than that of the compound before.

In experiment [1], `NCCc1c[nH]c2ccc(O)cc12` [serotonin] displayed a Kd of 223 µM.

Consider `NCCc1c[nH]c2ccccc12` [tryptamine], for which the Km was found to be 470 ± 80 µM in experiment [2]; 550 ± 70 µM in experiment [3]; 650 ± 90 µM in experiment [4]; 1200 ± 100 µM in experiment [5]; 470 ± 90 µM in experiment [6]; 490 ± 70 µM in experiment [7].
